In patent publication US20250032530A1, “USE OF AURANOFIN AS AN INHIBITOR OF ATYPICAL PROTEIN KINASE C FOR TREATMENT OF NEURODEGENERATIVE DISORDERS” (UNIVERSITY OF SOUTH FLORIDA, priority 2021, published 2025):
Read-outs that look alike come from different tables or passages of the source.

Columns and labels:
[1] = system: aPKC, Akt2, AMP-activated kinase (AMPK), FoxO1; conditions: isolated human hepatocytes; cited from earlier work
[2] = Distribution and passage of the blood brain barrier; format: in vivo; conditions: published and prelim PK/PD studies
Experimental: aPKC Inhibitors. We identified by HTS compounds that target the substrate-binding site of aPKCs and potently (IC50s10-30 nM) inhibit recombinant PIP3-dependent aPKCs, but not DAG-dependent PKCs. Three compounds have been studied in detail: (a) 1H-imidazole-4-carboxamide, 5-amino-1-[2,3-dihydroxy-4-[(phosphono-oxy)methyl]cyclopentyl-[1R-(1a,2b,3b,4a)] […] Thus, these agents can reduce brain aPKC activity, indirectly at lower doses by inhibiting liver aPKC and correcting hyperinsulinemia in insulin-resistant states, and, at higher doses, by acting directly on brain PKC-λ/ι.

[3] = target: T1, 70 kDa PKC-λ/ι (Mus musculus, UniProt Q62074); experiment: 70 kDa PKC-λ/ι activity (p-thr-555/560-aPKC, Western) in brain and liver of normal mice given ICAP nasally or IV; format: in vivo
T1 construct: from tissue; host or cells: mouse brain and liver
T1 sequence (Q62074 1-595): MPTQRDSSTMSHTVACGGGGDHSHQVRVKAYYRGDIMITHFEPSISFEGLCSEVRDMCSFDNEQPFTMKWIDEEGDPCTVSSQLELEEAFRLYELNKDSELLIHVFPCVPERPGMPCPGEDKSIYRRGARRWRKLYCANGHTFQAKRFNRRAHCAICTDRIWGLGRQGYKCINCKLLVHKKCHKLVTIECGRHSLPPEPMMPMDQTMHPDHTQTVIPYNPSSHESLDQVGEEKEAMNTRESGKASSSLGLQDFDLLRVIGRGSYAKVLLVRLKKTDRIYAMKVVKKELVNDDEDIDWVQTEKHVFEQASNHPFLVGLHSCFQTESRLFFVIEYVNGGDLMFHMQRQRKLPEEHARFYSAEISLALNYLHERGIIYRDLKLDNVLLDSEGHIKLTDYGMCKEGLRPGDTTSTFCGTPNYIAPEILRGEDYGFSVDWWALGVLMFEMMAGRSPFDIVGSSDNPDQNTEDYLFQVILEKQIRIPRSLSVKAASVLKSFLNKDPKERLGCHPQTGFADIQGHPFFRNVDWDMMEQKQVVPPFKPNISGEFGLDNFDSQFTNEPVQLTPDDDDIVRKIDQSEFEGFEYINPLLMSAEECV

[4] = system: Tg APP/PS1 AD mice; experiment: Memory tests (Novel Object Recognition, RAWM) in transgenic APP/PS1 AD mice given oral ICAP; format: in vivo, mouse; conditions: PO 100 mg/kg/day × 3 months
Experimental: Radial Arm Water Maze (RAWM) assesses learning and spatial memory and requires hippocampal and frontal cortical areas. The maze consisted of a circular pool filled with opaque water, with 6 arms radiating from a central area. On each training day, mice were released to swim and find a submerged escape platform at the end of a goal arm, utilizing extra-maze cues to form a spatial representation. On each day, there were 4 consecutive acquisition trials of no more than 1 minute each. […] If the animal made an error, it was returned to the start arm in a restart procedure. After the last acquisition trial, the animal was dried and returned to its home cage for 30 min and then given a single retention trial from the same start arm to measure short-term spatial memory.

[5] = target: T2, PKC-λ/ι (Mus musculus, UniProt Q62074); conditions: cited from earlier work
T2 sequence (Q62074 1-595): T1 sequence (Q62074 1-595)

[6] = target: T3, 50 kDa PKMζ (Mus musculus, UniProt Q02956); experiment: 50 kDa PKMζ activity in brain of normal mice given nasal ICAP; format: in vivo; conditions: 100 mg/kg/day, 3 weeks
T3 construct: from tissue; host or cells: mouse brain
T3 sequence (Q02956 1-409 isoform Q02956-2): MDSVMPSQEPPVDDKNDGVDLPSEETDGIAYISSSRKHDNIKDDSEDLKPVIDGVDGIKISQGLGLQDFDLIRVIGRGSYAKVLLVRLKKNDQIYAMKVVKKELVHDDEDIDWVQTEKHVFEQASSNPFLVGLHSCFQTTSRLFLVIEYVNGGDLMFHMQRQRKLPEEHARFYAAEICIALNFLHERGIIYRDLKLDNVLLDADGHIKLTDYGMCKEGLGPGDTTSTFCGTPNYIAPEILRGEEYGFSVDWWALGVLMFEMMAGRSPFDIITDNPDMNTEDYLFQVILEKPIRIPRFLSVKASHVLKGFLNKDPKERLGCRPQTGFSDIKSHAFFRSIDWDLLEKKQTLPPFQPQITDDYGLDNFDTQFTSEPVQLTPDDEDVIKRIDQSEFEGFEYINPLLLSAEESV

[7] = system: Aβ-peptides and Aβ-plaque; experiment: AD pathology (Aβ-peptides by ELISA, Aβ-plaque load) in transgenic APP/PS1 AD mice given ICAP; format: in vivo, mouse
[8] = system: BACE1 and CKs (TNF-α, IL-1β, IL-6); experiment: BACE1 and proinflammatory cytokine levels in APP/PS1 AD mice given oral ICAP; format: in vivo, mouse
Excerpt: Values are Mean±SEM of results in 10 mice.
As alluded to, resting PKC-λ/ι activity was increased by approx. 40% in brains of Tg APP/PS1 AD mice, relative to normal WT mice (FIG. 17).

[9] = system: BACE1; experiment: BACE1 protein and mRNA levels in brain and liver of normal mice given ICAP nasally or IV; format: in vivo, mouse
Experimental: Values are mean±SEM of 6 mice/group. P values, (ANOVA).
Values are mean±SEM of 6 mice/group.
As described, samples from mouse brains that were flash-frozen in liquid N2 and stored at −80° C. were homogenized in buffer containing 0.25M sucrose, 20 mM Tris/HCl (pH, 7.5), 2 mM EGTA, 2 mM EDTA, 1 mM phenyl-methyl-sulfonyl-fluoride, 20 μg/ml leupeptin, 10 μg/ml aprotinin, 2 mM Na4P2O7, 2 mM Na3VO4, 2 mM NaF, and 1 μM microcystin, and then supplemented with 1% TritonX-100, 0.6% Nonidet and 150 mM NaCl.
(§1) As described, western analyses were conducted with rabbit antisera, using: anti-aPKC [recognizes a C-terminal sequence in all aPKCs (Santa Cruz Biotechnologies, Santa Cruz, CA, USA)]; anti-phospho-threonine (thr)-560/555-PKC-ζ/λ/ι [recognizes a phosphopeptide sequence present in all aPKCs and indicates activation (Invitrogen, Carlsbad, CA, USA)]; anti-phospho-serine (ser)-473-Akt [recognizes a phosphopeptide sequence at 60 kDa present in all Akt's-1/2/3 and indicates activation (Cell Signaling Technologies, Danvers, MA, USA)]; anti-4 kDa-AP1-40/42 (Cell Signaling Technologies, Danvers, MA, USA); anti-mouse-70 kDa-BACE1 and anti-human-70 kDa-BACE1 (ThermoFisher); and anti-phospho-threonine (thr)-231-tau (Gene Tex, Irvine, CA, USA). Samples from all experimental groups within each study were compared on the same blots and routinely checked with loading controls. All comparisons in histograms were made relative to the mean value of the basal control group, i.e., wild-type mice consuming standard low-fat mouse chow, untreated with insulin or aPKC inhibitors, and having normal levels of aPKCs and other cellular proteins.

[10] = IV and PO, 200 mg/kg body weight; cited from earlier work
[11] = system: aPKC; conditions: cited from earlier work
[12] = system: non-sensitive cancer cells; conditions: read-out: cytotoxicity activity (IC50); cited from earlier work
[13] = system: PKCι and PKCζ; conditions: cited from earlier work
[14] = system: NFκB; experiment: Insulin-induced NFκB activity in LA1-5s neuronal cells; format: cell-based, human; conditions: 200 nM insulin, 24 hours; 1 μM ACPD, increasing concentrations of auranofin
Excerpt: (§2) Cell lysates were subjected to Western analyses for phosphorylated/activated forms of aPKC, NFκB and Akt. Representative blots of indicated proteins are shown in upper bands. […] Bargrams show Mean±SEM of 3-4 determinations. Asterisks indicate P<0.05; comparison of designated group versus the uninhibited, insulin-treated group (ANOVA).
(§3) LA1-5s neuronal cells were originally obtained from non-catecholamine-producing neuroblastoma of a person and are commercially available from the European Collection of Authenticated Cell Cultures. Incubation conditions were as described.
as §1, with “Samples from all experimental groups within each study were compared on the same blots and routinely checked with loading controls. All comparisons in histograms were made relative to the mean value of the basal control group, i.e., wild-type mice consuming standard low-fat mouse chow, untreated with insulin or aPKC inhibitors, and having normal levels of aPKCs and other cellular proteins.” left out

[15] = system: Akt; experiment: Insulin-induced Akt activation in LA1-5s neuronal cells; format: cell-based, human; conditions: 200 nM insulin, 24 hours
Excerpt: as §2, §3
as §1, with “Samples from all experimental groups within each study were compared on the same blots and routinely checked with loading controls. All comparisons in histograms were made relative to the mean value of the basal control group, i.e., wild-type mice consuming standard low-fat mouse chow, untreated with insulin or aPKC inhibitors, and having normal levels of aPKCs and other cellular proteins.” left out

[16] = system: BACE1; experiment: BACE1 levels in LA1-5s neuronal cells treated with insulin; format: cell-based, human; conditions: 200 nM insulin, 24 hours; increasing concentrations of ICAPP
Experimental: Values of BACE1 are Mean±SEM of 4 values. Asterisks indicate P<0.05 for comparison of designated group versus the untreated control group (ANOVA).
as §3, §1

[17] = PO; cited from earlier work
[18] = system: sensitive cancer cells; conditions: read-out: cytotoxicity activity (IC50); cited from earlier work
[19] = system: CA-125; conditions: oral administration, 10 patients; cited from earlier work
[20] = mouse, in vivo, po, 100 mg/kg/day
[21] = PO 100 mg/kg/day × 3 months, brain
[22] = nasal, 100 mg/kg/day, 3 weeks, brain

For `NC(=O)c1ncn(C2CC(CO)C(O)C2O)c1N` (centres unmarked) [ICAP], the FoxO1 phosphorylation/inactivation [1] is given as “increase FoxO1 phosphorylation/inactivation”, the “inhibition of aPKC, Akt2, AMPK” value [1] is given as “inhibit aPKC but not Akt2 or AMP-activated kinase (AMPK)” and the “passage of the BBB” value [2] is given as “clearly passes the BBB and enters the brain”. The tissue distribution [2] was “preferentially distributes to liver”, the “decrease of brain PKC-λ/ι (aPKC) activity” value ([3]; IV, 100 mg/kg/day × 7 days, normal mice, brain) was 50-60% and the “inhibition of PKC-λ versus PKMζ” value ([3]; mouse brain) was “inhibits PKC-λ, but not PKMζ”. The “inhibition of brain 70 kDa PKC-λ/ι (aPKC) activity” value ([3]; nasal, 100 mg/kg/day, 3 weeks, normal mice, brain) was 70-80%, the “memory function, Novel Object Recognition (NOR) test” value [4] was “restored memory functions” and the “memory function, RAWM test” value ([4]; not shown) was “restored memory functions”. The “effect on LTP and LTM” value [5] was “lack of effect”, the “brain 50 kDa PKMζ activity” value [6] was “not altered” and the “reduction of Aβ-plaque load” value ([7]; PO 100 mg/kg/day × 3 months, APP/PS1 AD mice) was “approx. 70%”. The Aβ40 levels [7, 20] was “reduced”, the Aβ42 levels [7, 20] was “reduced” and the “AD pathological and functional aberrations” value ([7]; nasal ICAP, APP/PS1 AD mice, not shown) was “corrected AD pathological and functional aberrations”. The “liver BACE1 levels” value ([8]; PO 100 mg/kg-bw daily, liver) was “diminished”, the “brain levels of BACE1” value [8, 21] was “diminished” and the “brain levels of CKs (TNF-α, IL-1β, IL-6)” value [8, 21] was “diminished”. For the same molecule, the “decrease of brain BACE1 levels” value ([9]; IV, 100 mg/kg/day × 7 days, brain) was 50-60%, the “decrease of liver BACE1 levels” value ([9]; IV, 100 mg/kg/day × 7 days, liver) was “approximately 90%” and the “decrease of brain BACE1 mRNA levels” value [9, 22] was “approximately 50%”. For the same molecule, the “decrease of brain BACE1 protein levels” value [9, 22] was “approximately 50%”, the “ICAP uptake over 24 hours, liver versus brain” value [10] was “substantially greater in liver than in brain” and the “inhibition of brain aPKC” value ([11]; at higher doses) was “inhibit brain aPKC”. For the same molecule, the effectiveness in brain ([11]; given per os (PO), nasally, SC) was “effective in brain” and the “aPKC inhibition in liver, muscle, adipose tissue” value ([11]; intact mice, employed doses) was “inhibit aPKC in liver, but not in muscle or adipose tissue”.

For `CC(=O)OC[C@H]1O[C@@H]([S-])[C@H](OC(C)=O)[C@@H](OC(C)=O)[C@@H]1OC(C)=O.CCP(CC)CC.[Au+]` [auranofin, 1-thio-β-D-glucopyranosatotriethylphosphine gold-2,3,4,6-tetraacetate], the IC50 [12] is listed as > 40 µM, the “inhibition of PKCι and PKCζ signaling by targeting the PB1 domain” value [13] is listed as “inhibits PKCι and PKCζ signaling” and the “insulin activation of aPKC (PB1 site)” value [13] is listed as “inhibit insulin activation of aPKC”. The “insulin-induced increase in NFκB activity” value [14] was “diminished”, the “insulin-induced Akt activation” value [15] was “not Akt activation” and the “insulin-induced increase in BACE1 levels” value [16] was “diminished”. The “passage of the BBB” value [17] was “known to cross the BBB”, the IC50 [18] was ≤ 10 µM and the “levels of CA-125” value [19] was “decreased levels of CA-125 in one patient”.
